Measured values published in US20240368214A1, “POSITIVE NMDA-MODULATING COMPOUNDS AND METHODS OF USE THEREOF” (SAGE THERAPEUTICS, INC., priority 2021, published 2024).

Target: T1, recombinant human GluN1/GluN2A receptor (Homo sapiens, UniProt Q05586+Q12879)
T1 construct: expressed in transfected cells; host or cells: HEK293, tetracycline-inducible expression
Test: Whole-cell patch clamp of mammalian cells (Syncropatch 384i), NMDA modulation
Format: cell-based
Settings: Table H-2, HEK293 cells, human GluN1/GluN2A, glutamate 1 μM / glycine 100 μM, -80 mV, peak amplitude increase; for EC50: read-out: EC50
Procedure, shortened: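 Modulation read as fold rise in peak current, (Icomp/Icontrol)−1, from 8 concentrations with ≥2 wells each, four-parameter fit. Compound pre-incubated 120 s then co-applied with 1 μM glutamate plus 100 μM glycine; tetracycline-inducible HEK293 GluN1/GluN2A cells clamped at −80 mV.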

T1 sequence (Q12879 23-1464, other chains not shown): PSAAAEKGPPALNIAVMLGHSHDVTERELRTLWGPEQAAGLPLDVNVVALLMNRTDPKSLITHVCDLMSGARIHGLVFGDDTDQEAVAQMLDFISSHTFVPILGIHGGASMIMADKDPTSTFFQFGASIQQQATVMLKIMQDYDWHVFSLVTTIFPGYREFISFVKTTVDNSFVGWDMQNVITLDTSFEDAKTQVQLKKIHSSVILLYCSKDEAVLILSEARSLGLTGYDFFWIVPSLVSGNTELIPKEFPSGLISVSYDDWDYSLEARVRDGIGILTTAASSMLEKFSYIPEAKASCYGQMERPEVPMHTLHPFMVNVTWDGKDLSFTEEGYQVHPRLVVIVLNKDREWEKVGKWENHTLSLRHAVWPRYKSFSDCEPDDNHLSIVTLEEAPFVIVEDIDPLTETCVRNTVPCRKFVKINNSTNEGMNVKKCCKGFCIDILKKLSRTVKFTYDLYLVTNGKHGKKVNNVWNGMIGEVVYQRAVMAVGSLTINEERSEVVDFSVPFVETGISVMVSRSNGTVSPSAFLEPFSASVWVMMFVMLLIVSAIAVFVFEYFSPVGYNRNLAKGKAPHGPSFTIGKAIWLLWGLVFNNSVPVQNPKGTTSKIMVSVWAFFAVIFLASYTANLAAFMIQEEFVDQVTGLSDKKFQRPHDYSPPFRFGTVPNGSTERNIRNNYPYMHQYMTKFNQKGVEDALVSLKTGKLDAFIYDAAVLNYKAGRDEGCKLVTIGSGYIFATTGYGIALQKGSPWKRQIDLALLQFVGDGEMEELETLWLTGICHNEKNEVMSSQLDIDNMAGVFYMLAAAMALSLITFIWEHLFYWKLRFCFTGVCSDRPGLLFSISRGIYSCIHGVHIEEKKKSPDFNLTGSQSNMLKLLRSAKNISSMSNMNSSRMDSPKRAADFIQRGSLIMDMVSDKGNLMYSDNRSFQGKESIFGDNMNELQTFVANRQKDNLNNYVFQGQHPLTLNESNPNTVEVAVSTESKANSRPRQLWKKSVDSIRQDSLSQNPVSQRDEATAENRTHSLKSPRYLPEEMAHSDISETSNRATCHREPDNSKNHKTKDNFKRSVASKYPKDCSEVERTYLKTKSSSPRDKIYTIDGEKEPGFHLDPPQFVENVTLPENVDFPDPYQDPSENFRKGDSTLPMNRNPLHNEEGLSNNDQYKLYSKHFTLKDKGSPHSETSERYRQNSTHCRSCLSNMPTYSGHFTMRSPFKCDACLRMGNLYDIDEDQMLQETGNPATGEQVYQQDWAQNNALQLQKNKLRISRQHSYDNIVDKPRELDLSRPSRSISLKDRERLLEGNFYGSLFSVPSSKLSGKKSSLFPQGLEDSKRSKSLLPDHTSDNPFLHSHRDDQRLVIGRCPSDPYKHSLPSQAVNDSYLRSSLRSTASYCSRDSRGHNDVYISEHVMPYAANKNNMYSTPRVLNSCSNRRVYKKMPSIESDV

Row | SMILES | Emax [%] | EC50 [nM]
1 | C[C@H](CC[C@](C)(O)C(F)(F)F)[C@H]1CCC[C@H]2[C@@H]3CC=C4C[C@@](C)(O)CC[C@]4(C)[C@H]3CC[C@]12C [Compound H-1, (2S,4aR,4bS,6aR,7R,10aS,10bS)-2,4a,6a-trimethyl-7-((2R,5S)-6,6,6-trifluoro-5-hydroxy-5-methylhexan-2-yl)-1,2,3,4,4a,4b,5,6,6a,7,8,9,10,10a,10b,11-hexadecahydrochrysen-2-ol] | 100 to 200 | 500 to 1000
2 | C[C@H](CCC1(O)CCC(C)(C)CC1)[C@H]1CCC[C@H]2[C@@H]3CC[C@H]4C[C@](O)(C(F)(F)F)CC[C@]4(C)[C@H]3CC[C@]12C [Compound H-3, (2S,4aS,4bS,6aR,7R,10aS,10bR,12aS)-7-((R)-4-(1-hydroxy-4,4-dimethylcyclohexyl)butan-2-yl)-4a,6a-dimethyl-2 (trifluoromethyl)octadecahydrochrysen-2-ol] | – | > 1000
3 | CC[C@]1(O)CC[C@@]2(C)[C@@H](CC[C@@H]3[C@@H]2CC[C@]2(C)[C@@H]([C@H](C)CCCC(C)(C)O)CCC[C@@H]32)C1 [Compound H-4, (2S,4aS,4bS,6aR,7R,10aS,10bR,12aS)-2-ethyl-7-((R)-6-hydroxy-6-methylheptan-2-yl)-4a,6a-dimethyloctadecahydrochrysen-2-ol] | 100 to 200 | 100 to 500
4 | CC[C@]1(O)CC[C@@]2(C)C(=CC[C@H]3[C@@H]4CCC[C@H]([C@H](C)CC[C@H](O)C(C)C)[C@@]4(C)CC[C@@H]32)C1 [Compound H-5, (2S,4aR,4bS,6aR,7R,10aS,10bS)-2-ethyl-7-((2R,5S)-5-hydroxy-6-methylheptan-2-yl)-4a,6a-dimethyl-1,2,3,4,4a,4b,5,6,6a,7,8,9,10,10a,10b,11-hexadecahydrochrysen-2-ol] | – | 100 to 500
5 | CC[C@]1(O)CC[C@@]2(C)C(=CC[C@H]3[C@@H]4CCC[C@H]([C@H](C)CC[C@@H](O)C(C)C)[C@@]4(C)CC[C@@H]32)C1 [Compound H-6, (2S,4aR,4bS,6aR,7R,10aS,10bS)-2-ethyl-7-((2R,5R)-5-hydroxy-6-methylheptan-2-yl)-4a,6a-dimethyl-1,2,3,4,4a,4b,5,6,6a,7,8,9,10,10a,10b,11-hexadecahydrochrysen-2-ol] | < 100 | 1 to 100
6 | CC(C)[C@@H](O)CC[C@@H](C)[C@H]1CCC[C@H]2[C@@H]3CC=C4C[C@@](C)(O)CC[C@]4(C)[C@H]3CC[C@]12C [Compound H-7, (2S,4aR,4bS,6aR,7R,10aS,10bS)-7-((2R,5S)-5-hydroxy-6-methylheptan-2-yl)-2,4a,6a-trimethyl-1,2,3,4,4a,4b,5,6,6a, 7,8,9,10,10a, 10b,11-hexadecahydrochrysen-2-ol] | – | 100 to 500
7 | CC(C)[C@H](O)CC[C@@H](C)[C@H]1CCC[C@H]2[C@@H]3CC=C4C[C@@](C)(O)CC[C@]4(C)[C@H]3CC[C@]12C [Compound H-8, (2S,4aR,4bS,6aR,7R,10aS,10bS)-7-((2R,5R)-5-hydroxy-6-methylheptan-2-yl)-2,4a,6a-trimethyl-1,2,3,4,4a,4b,5,6,6a, 7,8,9,10,10a,10b,11-hexadecahydrochrysen-2-ol] | < 100 | 100 to 500
8 | CC[C@]1(O)CC[C@@]2(C)C(=CC[C@H]3[C@@H]4CCC[C@H]([C@H](C)CC[C@](C)(O)C(F)(F)F)[C@@]4(C)CC[C@@H]32)C1 [Compound H-9, (2S,4aR,4bS,6aR,7R,10aS,10bS)-2-ethyl-4a,6a-dimethyl-7-((2R,5S)-6,6,6-trifluoro-5-hydroxy-5-methylhexan-2-yl)-1,2,3,4,4a,4b,5,6,6a,7,8,9,10,10a,10b,11-hexadecahydrochrysen-2-ol] | – | 100 to 500
